Assay results reported in US11299458B2, “Crystalline compounds” (OTSUKA AMERICA PHARMACEUTICAL, INC., priority 2015, dated 2022).
Values joined by “and” are separate entries in the source; they are usually repeats but may differ in a detail not shown here. Equal entries are not always repeated.

Experiments:
[1] = target: norepinephrine reuptake (NE) (Homo sapiens, UniProt P23975); details: unbalanced triple reuptake inhibitor; cited from earlier work
dopamine reuptake (DA) = dopamine reuptake (DA) (Homo sapiens, UniProt Q01959); details: unbalanced triple reuptake inhibitor; cited from earlier work
dopamine reuptake (DA), sequence (Q01959 whole entry): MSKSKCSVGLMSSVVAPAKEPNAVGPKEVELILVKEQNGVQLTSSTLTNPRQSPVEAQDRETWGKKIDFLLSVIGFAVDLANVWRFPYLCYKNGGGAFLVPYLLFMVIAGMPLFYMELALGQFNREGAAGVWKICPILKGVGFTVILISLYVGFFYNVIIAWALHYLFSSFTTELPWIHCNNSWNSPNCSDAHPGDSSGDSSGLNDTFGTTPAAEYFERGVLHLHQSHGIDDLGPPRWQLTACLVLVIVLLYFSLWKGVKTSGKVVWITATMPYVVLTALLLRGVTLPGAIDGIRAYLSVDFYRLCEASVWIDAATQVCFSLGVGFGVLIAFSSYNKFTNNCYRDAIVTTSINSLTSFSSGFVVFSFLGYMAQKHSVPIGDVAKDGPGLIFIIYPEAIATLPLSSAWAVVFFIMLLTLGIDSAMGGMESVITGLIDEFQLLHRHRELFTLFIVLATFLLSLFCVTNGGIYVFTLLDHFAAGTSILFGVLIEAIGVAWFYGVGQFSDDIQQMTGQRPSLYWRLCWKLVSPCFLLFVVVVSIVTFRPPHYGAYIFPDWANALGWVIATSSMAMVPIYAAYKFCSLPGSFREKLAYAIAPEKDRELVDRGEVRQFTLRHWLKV

[2] = target: serotonin reuptake (5-HT) (Homo sapiens, UniProt P31645); details: unbalanced triple reuptake inhibitor; cited from earlier work
serotonin reuptake (5-HT), sequence (P31645 whole entry): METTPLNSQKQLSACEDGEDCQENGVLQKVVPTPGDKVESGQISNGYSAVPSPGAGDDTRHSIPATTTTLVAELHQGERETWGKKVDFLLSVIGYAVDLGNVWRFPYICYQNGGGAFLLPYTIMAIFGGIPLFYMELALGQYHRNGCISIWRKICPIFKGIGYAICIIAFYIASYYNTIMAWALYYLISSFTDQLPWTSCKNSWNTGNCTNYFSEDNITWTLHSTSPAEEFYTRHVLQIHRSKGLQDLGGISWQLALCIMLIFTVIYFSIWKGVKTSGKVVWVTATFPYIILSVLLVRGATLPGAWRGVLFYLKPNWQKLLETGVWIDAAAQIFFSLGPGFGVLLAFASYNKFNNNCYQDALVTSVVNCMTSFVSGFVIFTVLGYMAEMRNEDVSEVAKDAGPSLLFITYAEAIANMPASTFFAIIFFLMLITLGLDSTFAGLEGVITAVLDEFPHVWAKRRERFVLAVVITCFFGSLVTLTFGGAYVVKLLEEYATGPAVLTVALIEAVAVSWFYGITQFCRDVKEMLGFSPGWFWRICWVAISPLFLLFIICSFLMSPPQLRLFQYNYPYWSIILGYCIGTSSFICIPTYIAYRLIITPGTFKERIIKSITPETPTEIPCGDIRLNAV

[3] = Accelerated stress conditions (relative humidity stress), solid form by XRPD; format: physicochemical; details: two weeks
Method: Relative Humidity Stress: Solids are stored at approximately 40° C./75% RH condition for a measured time period by placing the solids into a vial inside a sealed temperature/humidity chamber at the controlled condition. Samples are analyzed after removal from the stress environment.
Crystalline Forms A, B, and C are exposed to accelerated stress conditions for two weeks (Table 18 below). […] Crystalline Form C is metastable at this condition.
Experimental: Relative Humidity Stress
The following relative humidity jars (saturated salt solutions are used to generate desired relative humidity) are utilized: 75% RH (NaCl) and 56% RH (NaBr) (Nyqvist, H., Int. J. Pharm. Tech. &Prod. Mfr. 1983, 4 (2), 47-48).

[4] = Approximate solubility by solvent aliquot addition; format: physicochemical; details: in both methanol and water, room temperature
Method: Solution calorimetry (SolCal) analyses are also performed to determine the heats of solution in methanol at 25° C. and confirm the stable form at this temperature (see Example 15).
Experimental: Approximate Solubility
A weighed sample is treated with aliquots of the test solvent at room temperature. The mixture is sonicated between additions to facilitate dissolution. Complete dissolution of the test material is determined by visual inspection. Solubility is estimated based on the total solvent used to provide complete dissolution. The actual solubility may be greater than the value calculated because of the use of solvent aliquots that are too large or due to a slow rate of dissolution.

[5] = Solution calorimetry (SolCal), heats of solution in methanol; format: physicochemical; details: 25° C.
Method: For each test, two heats of solution are obtained—one calculated using a calibration preceding the sample analysis and one calculated using a calibration following the sample analysis. Clear solutions are observed after each test.
Solution calorimetry is performed using a Thermometric 2225 Precision Solution calorimeter, a semi-adiabatic calorimeter. Solution calorimeter System v.1.2 software is used. Samples are weighed into glass crushing ampoules and are sealed using silicone rubber plugs and hot wax. Experiments are carried out in 100 mL of methanol at 25° C. The measurement of the heats of solution of the samples is both preceded and followed by calibrations using an internal heater. The heats of solution are calculated using dynamic of calibration model.

[6] = Binary interconversion (competitive) slurry experiments between Crystalline Forms A, B and C; format: physicochemical; details: from interconversion slurries
Method: Interconversion experiments are performed to test the hypothetical thermodynamic relationship between materials illustrated by the Energy—Temperature Diagram above. […] The choice of solvent affects the kinetics of polymorph conversion and not the thermodynamic relationship between polymorphic forms (Gu, C. H., Young, V. Jr., Grant, D. J., J. Pharm. Sci. 2001, 90 (11), 1878-1890).
Binary interconversion slurry experiments between Crystalline Forms A, B, and C in different solvent systems at temperatures spanning approximately 2 through 67° C. are summarized in Table 16 below. Saturated solutions are generated and then added to mixtures composed of approximately equivalent quantities of two of the polymorphs. The samples are slurried from overnight to three weeks and the solids harvested and analyzed by XRPD. The results of the interconversion studies indicate that the relative thermodynamic stability of the enantiotropes Crystalline Forms A, B, and C are correctly depicted by the proposed Energy—Temperature Diagram. In addition, Tt,C→B is expected below 2° C.

[7] = Storage stability of solid form, XRPD after storage; format: physicochemical; details: 22 days of ambient storage
Method: Six scale-up attempts are conducted to prepare Crystalline Form C by cooling in isopropanol on approximately 50-150 mg scale (Table 11) and the solids tested by XRPD. At refrigerator temperature, precipitated solids yield Form B. Seeding with Form C after cooling in the refrigerator (no solids observed) and before placing in the freezer yield XRPD pattern of Form C with B peaks. Precipitation at freezer temperature results in solids with an XRPD pattern of Form C with A peaks. A solution placed in the freezer after cooling to room temperature with a lower concentration (7 mg/mL compared to 10 mg/mL) yields Form B. By crash cooling (ambient solution placed into dry ice/isopropanol), solids generated are a mixture of Forms B and A. The last attempt on an approximate 50-mg scale generates a mixture of Forms A and C.
An elliptically graded multilayer mirror is used to focus Cu Kα X-rays through the specimen and onto the detector. Prior to the analysis, a silicon specimen (NIST SRM 640e) is analyzed to verify the observed position of the Si 111 peak is consistent with the NIST-certified position. A specimen of the sample is sandwiched between 3-μm-thick films and analyzed in transmission geometry. A beam-stop, short antiscatter extension, and antiscatter knife edge are used to minimize the background generated by air. Soller slits for the incident and diffracted beams are used to minimize broadening from axial divergence. The diffraction pattern is collected using a scanning position-sensitive detector (X'Celerator) located 240 mm from the specimen and Data Collector software v. 2.2b. Data acquisition parameters are: Panalytical X-Pert Pro MPD PW3040 Pro, X-ray Tube: Cu (1.54059 Å), Voltage: 45 kV, Amperage: 40 mA, Scan Range: 1.00-39.99° 2θ, Step Size: 0.017° 2θ, Collection Time: 719 s, Scan Speed: 3.3°/min., Slit: DS: ½°, SS: null, Revolution Time: 1.0 s, Mode: Transmission.

[8] = Physical stability of mixture of Forms A and B on heat exposure; format: physicochemical; details: exposure to 230° C.
Method: Tt,B→A is between 37 and 54° C. […] (Table 19 below).

norepinephrine reuptake (NE), sequence (P23975 whole entry): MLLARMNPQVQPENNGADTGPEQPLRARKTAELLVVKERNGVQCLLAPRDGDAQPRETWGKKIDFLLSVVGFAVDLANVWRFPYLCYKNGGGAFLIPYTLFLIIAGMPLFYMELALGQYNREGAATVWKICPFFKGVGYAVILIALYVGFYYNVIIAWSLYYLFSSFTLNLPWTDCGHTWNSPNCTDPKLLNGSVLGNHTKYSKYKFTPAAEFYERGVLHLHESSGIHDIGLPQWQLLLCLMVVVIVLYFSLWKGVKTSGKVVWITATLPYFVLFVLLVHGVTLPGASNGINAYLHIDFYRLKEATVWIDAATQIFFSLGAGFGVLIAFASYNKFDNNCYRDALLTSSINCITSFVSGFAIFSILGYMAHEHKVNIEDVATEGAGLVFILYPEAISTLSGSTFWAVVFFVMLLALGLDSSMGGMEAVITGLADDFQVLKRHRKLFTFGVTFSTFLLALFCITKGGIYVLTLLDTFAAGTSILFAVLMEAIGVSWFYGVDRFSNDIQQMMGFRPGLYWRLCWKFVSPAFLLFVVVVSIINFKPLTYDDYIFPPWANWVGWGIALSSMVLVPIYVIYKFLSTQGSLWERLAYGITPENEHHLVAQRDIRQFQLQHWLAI

c1ccc2cc([C@]34CNC[C@H]3C4)ccc2c1 [(1R,5S)-1-(naphthalen-2-yl)-3-azabicyclo[3.1.0]hexane]
potency towards norepinephrine reuptake (NE) among the three reuptakes [1]: most potent | potency towards dopamine reuptake (DA) relative to norepinephrine reuptake (dopamine reuptake (DA)): one-sixth as potent | potency towards serotonin reuptake (5-HT) relative to norepinephrine reuptake [2]: one-fourteenth as much

Cl.c1ccc2cc([C@]34CNC[C@H]3C4)ccc2c1 [Crystalline Form B, (1R,5S)-1-(naphthalen-2-yl)-3-azabicyclo[3.1.0]hexane hydrochloride]
solid form by XRPD after accelerated stress ([3]; 30° C./56% RH): remain unchanged | solid form by XRPD after accelerated stress ([3]; 40° C./75% RH, hydrochloride): remain unchanged | apparent solubility compared with Crystalline Form A [4]: lower apparent solubility | relative thermodynamic stability versus Crystalline Form A from heats of solution [5]: more stable | enthalpy of the transition from Form B to Form A calculated from the SolCal data ([5]; methanol): about 15.9 J/g | average heat of solution ([5]; methanol, triplicate, endothermic, hydrochloride): 64.567 J/g | average heat of solution ([5]; methanol, average of three replicates, hydrochloride): 64.567 J/g | ΔH2 (heat of solution) ([5]; methanol, calculated using the calibration after breaking the sample vial, single replicates, hydrochloride): 64.985 J/g and 65.057 J/g and 65.421 J/g | ΔH1 (heat of solution) ([5]; methanol, calculated using the calibration before breaking the sample vial, single replicates, hydrochloride): 64.004 J/g and 63.471 J/g and 64.461 J/g | ΔHmean (heat of solution) ([5]; methanol, mean of the two calibrations, single replicates, hydrochloride): 64.495 J/g and 64.264 J/g and 64.941 J/g

Cl.c1ccc2cc([C@]34CNC[C@H]3C4)ccc2c1 [Crystalline Form C, (1R,5S)-1-(naphthalen-2-yl)-3-azabicyclo[3.1.0]hexane hydrochloride]
solid form by XRPD after accelerated stress ([3]; 40° C./75% RH, hydrochloride): converts to a mixture of Crystalline Forms A and B | transition temperature Tt,C→A [6]: between 2 °C and ambient temperature | solid form by XRPD after ambient storage [7]: remains unchanged

Cl.c1ccc2cc([C@]34CNC[C@H]3C4)ccc2c1 [mixture of Forms A and B, (1R,5S)-1-(naphthalen-2-yl)-3-azabicyclo[3.1.0]hexane hydrochloride]
solid form after heat exposure [8]: completely converts to Form A
